Key:
[1] = Colon and plasma mouse pharmacokinetics; assay type: in vivo; conditions: mouse, colon tissue / plasma; male Balb/c mice, 10 mg/kg PO; 0.5, 2 and 6 hours; read-out: colon to plasma ratio (colon AUC to plasma AUC)
Procedure: 6 male Balb/c mice were administered 10 mg/kg of compound in 1% HPMC+0.1% Tween-80 by PO administration. At 0.5, 2 and 6 hours after dose administration, animals were anesthetized, and terminal blood samples were collected by cardiac puncture, followed by collection of colon contents and colon tissue.
Blood samples were collected into K2EDTA and stored on wet ice until processed to plasma by centrifugation (12000 rpm at 4° C.). Plasma samples were transferred to cluster tubes and placed on dry ice prior to freezer storage. The colon contents from each animal were collected at each terminal blood collection time point. The colon tissues were flushed with saline and patted dry. The colon and colon content tissues were homogenized using sterile water containing 0.1% formic acid 9:1 (water:tissue, v/w). The homogenized tissues and colon contents were transferred to cluster tubes and placed on dry ice prior to freezer storage. All samples were analyzed using LC/MS/MS against analytical standards.
The composite pharmacokinetic parameters of the compounds were determined by non-compartmental analysis using Phoenix WinNonlin Version 6 (Certara, St. Louis, Mo.) and using mean values from 2 animals/time point. For plasma concentrations below the quantification limit (BQL), the lowest concentration measurable or the BLOQ (below limit of quantification) was used.
A colon to plasma ratio was determined as the ratio of the colon AUC to the plasma AUC.

[2] = system: IL-2 stimulated pSTAT5 in CD4+ T cells; experiment: Inhibition of IL-2 stimulated pSTAT5 in CD4+ T cells isolated from murine splenocytes; assay type: cell-based; conditions: Mus musculus, AlphaLisa, read-out: pIC50, inhibition of IL-2 stimulated pSTAT5 (converted)
Procedure: The potency of test compounds for inhibition of interleukin-2 (IL-2) stimulated STAT5 phosphorylation was measured in the CD4+ T cells isolated from murine splenocytes using AlphaLisa. Because IL-2 signals through JAK3, this assay provides a measure of JAK3 cellular potency in mouse.
Phosphorylated STAT5 was measured via the AlphaLISA SureFire Ultra pSTAT5 (Tyr694/699) kit (PerkinElmer).
CD4+ T cells were isolated from murine splenocytes via negative selection on a magnetic column (Miltnyi Biotec) and re-suspended in assay media (phenol red-free DMEM (Life Technologies) supplemented with 10% FBS (ATCC)). Cells were seeded at 50,000 cells/well in assay media (2 μL/well). Compounds were serially diluted in DMSO and diluted to 2× final concentration in assay media. Compound was added (4 μl/well) and the cells incubated at 37° C., 5% CO2 for 1 hour, followed by the addition of IL-2 (R&D Systems; final concentration 7 ng/ml) in pre-warmed assay media (2 μL) for 30 minutes. After cytokine stimulation, cells were lysed with 2 μl of 5× AlphaLisa Lysis Buffer (PerkinElmer). The lysate was shaken at 900 rpm for 10 minutes at room temperature (RT). Phosphorylated STAT5 was measured via the pSTAT5 AlphaLisa kit (PerkinElmer). Freshly prepared acceptor bead mixture was dispensed onto lysate (5 ul) under green filtered <100 lux light. Plates were shaken at 900 rpm for 2 mins, briefly spun down, and incubated for 2 hrs at RT in the dark. Donor beads were dispensed (5 μl) under green filtered <100 lux light. Plates were shaken at 900 rpm for 2 mins, briefly spun down, and incubated overnight at RT in the dark. Luminescence was measured with excitation at 689 nm and emission at 570 nm using an EnVision plate reader (PerkinElmer) under green filtered <100 lux light.
To determine the inhibitory potency of test compounds in response to IL-2, the average emission intensity of beads bound to pSTAT5 was measured in primary CD4+ T cells isolated from murine splenocytes. IC50 values were determined from analysis of the inhibition curves of signal intensity vs compound concentration. Data are expressed as pIC50 (negative decadic logarithm IC50) values (mean±standard deviation).

[3] = system: oxazolone-induced colitis; experiment: Mouse model of oxazolone-induced colitis; assay type: in vivo; conditions: 3 mg/kg (PO, BID)
Procedure: Oxazolone-induced colitis is an experimental model that has a histological resemblance to human ulcerative colitis (Heller et al. Immunology, 2002, 17, 629-638). Adult BALB/C mice from Harlan were used in the assay. On day 1, animals were lightly anesthetized with isoflurane and the hairs between the shoulder were carefully removed before oxazolone (4%, 150 μL, 4:1 acetone:olive oil formulation) or vehicle solution was slowly applied for skin sensitization. Seven days after skin sensitization, the mice were fasted around 6 hours prior, anesthetized with ketamine/xylazine injection, and a 1 mL syringe equipped with a 3.5-F catheter, filled with oxazolone solution, was inserted carefully about 4 cm into the colon of the mouse. Following insertion, 50 μL of the oxazolone solution (0.8% in 1:1 ethanol:water formulation) was injected very slowly (over 30 sec using an injection pump) into the colon. Drug treatment (PO, QD or BID or TID) or vehicle was initiated a day prior to the oxazolone intrarectal (IR) challenge. Two-day post oxazolone intrarectal challenge, the disease was assessed by treatment-blinded experimenters for each mouse according to the criteria score: stool consistency score (0, normal; 2, loose; 4, diarrhea), gross bleeding score (0, absence; 2, blood tinged; 4, presence); Combined stool score endpoint=stool consistency score+stool blood score.
Select compounds were tested in the assay.

[4] = Dynamic moisture sorption (DMS) assessment; assay type: physicochemical; conditions: 25° C.; for hygroscopicity: DMS, 5% to 90% relative humidity; for weight gain (moisture uptake): humidity range of 5% to 90% relative humidity
Procedure: Dynamic moisture sorption (DMS) measurements were performed using a VTI atmospheric microbalance, SGA-100 system (VTI Corp., Hialeah, Fla. 33016). A weighed sample was used and the humidity was lowest possible value (close to 0% RH) at the start of the analysis. The DMS analysis consisted of an initial drying step (0% RH) for 120 minutes, followed by two cycles of sorption and desorption with a scan rate of 5% RH/step over the humidity range of 5% RH to 90% RH. The DMS run was performed isothermally at 25° C.

[5] = molecular target: T1, JAK2 (Homo sapiens, UniProt O60674); experiment: Biochemical JAK2 kinase assay (LanthaScreen)
T1 construct: GST; purchased Life Technologies
In short: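 GST-tagged recombinant JAK2 pre-incubated 1 h at ambient temperature with compound and GFP-STAT1 peptide in HEPES pH 7.5/MgCl2 buffer, then ATP added for a 1 h reaction with 1% DMSO. TR-FRET read after EDTA and Tb-anti-pSTAT1 (pTyr701) addition; IC50 from 4-parameter fit, converted to pKi by Cheng-Prusoff.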

[6] = system: IL-2 stimulated pSTAT5 in Tall-1 T cells; experiment: Cellular JAK3 potency assay: inhibition of IL-2 stimulated pSTAT5 in Tall-1 T cells; assay type: cell-based, human; conditions: IL-2 stimulated pSTAT5, Tall-1 T cells
In short: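 Tall-1 human T cells (45,000/well) in phenol red-free DMEM with 10% FBS were preincubated with compound 1 h at 37 °C, then stimulated with IL-2 (final 300 ng/ml) for 30 min. Lysate pSTAT5 read by AlphaLisa; IC50 from inhibition curves, reported as pIC50 (mean±SD).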

[7] = molecular target: T2, JAK3 (Homo sapiens, UniProt P52333); experiment: Biochemical JAK3 kinase assay (LanthaScreen); design: GST; purchased Life Technologies
T2 sequence (P52333 1-1124): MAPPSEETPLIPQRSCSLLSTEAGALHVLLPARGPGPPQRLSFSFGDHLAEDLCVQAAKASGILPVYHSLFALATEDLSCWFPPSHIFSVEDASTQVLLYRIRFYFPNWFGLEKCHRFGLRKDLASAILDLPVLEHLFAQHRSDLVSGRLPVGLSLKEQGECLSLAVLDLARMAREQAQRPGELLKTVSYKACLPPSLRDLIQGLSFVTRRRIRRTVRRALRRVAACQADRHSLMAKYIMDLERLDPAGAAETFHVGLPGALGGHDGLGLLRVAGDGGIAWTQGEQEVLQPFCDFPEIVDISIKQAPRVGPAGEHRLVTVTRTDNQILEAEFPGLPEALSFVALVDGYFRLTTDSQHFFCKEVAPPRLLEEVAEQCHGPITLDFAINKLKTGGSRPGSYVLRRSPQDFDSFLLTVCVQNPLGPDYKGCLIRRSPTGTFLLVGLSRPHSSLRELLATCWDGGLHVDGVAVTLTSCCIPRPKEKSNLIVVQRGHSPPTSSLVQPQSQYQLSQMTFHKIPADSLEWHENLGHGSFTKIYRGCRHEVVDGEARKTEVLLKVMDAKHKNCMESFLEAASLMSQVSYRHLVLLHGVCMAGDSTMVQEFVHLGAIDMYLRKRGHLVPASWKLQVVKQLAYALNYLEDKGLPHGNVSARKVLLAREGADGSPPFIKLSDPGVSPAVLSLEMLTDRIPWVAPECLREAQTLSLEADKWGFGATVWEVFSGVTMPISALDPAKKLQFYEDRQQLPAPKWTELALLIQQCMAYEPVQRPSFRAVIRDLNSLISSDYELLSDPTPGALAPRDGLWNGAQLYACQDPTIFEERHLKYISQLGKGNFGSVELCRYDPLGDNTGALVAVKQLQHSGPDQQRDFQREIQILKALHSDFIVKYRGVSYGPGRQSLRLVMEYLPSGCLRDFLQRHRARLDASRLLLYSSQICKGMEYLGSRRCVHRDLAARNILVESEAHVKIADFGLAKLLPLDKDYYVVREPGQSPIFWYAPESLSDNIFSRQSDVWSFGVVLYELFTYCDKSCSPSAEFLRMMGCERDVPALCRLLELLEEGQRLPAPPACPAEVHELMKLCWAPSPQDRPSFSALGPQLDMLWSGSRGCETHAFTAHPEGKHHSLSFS
In short: (§1)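 Values are pKi, calculated by Cheng-Prusoff from IC50 obtained by robust 4-parameter fitting of percent inhibition. The kinase reaction used GFP-STAT1 peptide in HEPES pH 7.5 buffer with MgCl2, EGTA and Brij-35, ATP-initiated after compound pre-incubation, 1 h at ambient temperature.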

[8] = molecular target: T3, Tyk2 (Homo sapiens, UniProt P29597); experiment: Biochemical Tyk2 kinase assay (LanthaScreen)
T3 construct: GST; purchased Life Technologies
In short: as §1

[9] = molecular target: T4, JAK1 (Homo sapiens, UniProt P23458); experiment: Biochemical JAK1 kinase assay (LanthaScreen)
T4 construct: GST; purchased Life Technologies
In short: as §1

T3 sequence (P29597 whole entry): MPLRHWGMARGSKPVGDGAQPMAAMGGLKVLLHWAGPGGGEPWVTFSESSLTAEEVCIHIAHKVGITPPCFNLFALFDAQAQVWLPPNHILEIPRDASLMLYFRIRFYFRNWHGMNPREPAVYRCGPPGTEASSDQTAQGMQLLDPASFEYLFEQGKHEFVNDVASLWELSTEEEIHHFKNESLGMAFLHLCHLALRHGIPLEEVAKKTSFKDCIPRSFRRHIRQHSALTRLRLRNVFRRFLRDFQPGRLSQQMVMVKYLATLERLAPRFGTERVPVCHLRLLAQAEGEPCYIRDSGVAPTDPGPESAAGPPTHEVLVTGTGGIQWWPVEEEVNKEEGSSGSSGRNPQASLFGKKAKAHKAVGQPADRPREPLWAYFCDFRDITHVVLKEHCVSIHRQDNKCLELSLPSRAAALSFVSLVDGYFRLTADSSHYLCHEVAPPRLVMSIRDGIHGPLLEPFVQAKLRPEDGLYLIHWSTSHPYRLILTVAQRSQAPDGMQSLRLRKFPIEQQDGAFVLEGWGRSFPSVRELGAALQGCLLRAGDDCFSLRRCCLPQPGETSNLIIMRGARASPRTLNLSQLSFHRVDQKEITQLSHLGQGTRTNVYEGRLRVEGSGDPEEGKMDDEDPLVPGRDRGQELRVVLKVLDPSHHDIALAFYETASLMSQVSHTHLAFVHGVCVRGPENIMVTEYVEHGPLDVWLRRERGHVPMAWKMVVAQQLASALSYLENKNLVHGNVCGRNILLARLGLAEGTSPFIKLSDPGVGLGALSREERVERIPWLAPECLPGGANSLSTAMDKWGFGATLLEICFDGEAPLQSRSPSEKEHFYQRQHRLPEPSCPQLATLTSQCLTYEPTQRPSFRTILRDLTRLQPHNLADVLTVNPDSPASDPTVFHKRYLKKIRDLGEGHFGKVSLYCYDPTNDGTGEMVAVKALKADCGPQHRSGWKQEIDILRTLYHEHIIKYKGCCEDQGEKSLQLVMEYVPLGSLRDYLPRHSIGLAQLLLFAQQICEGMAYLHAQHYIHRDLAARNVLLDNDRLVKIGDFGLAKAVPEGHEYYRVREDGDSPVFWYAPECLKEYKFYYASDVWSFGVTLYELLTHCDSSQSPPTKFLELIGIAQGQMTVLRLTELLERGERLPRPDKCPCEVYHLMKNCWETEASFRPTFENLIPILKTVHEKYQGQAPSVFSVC
T1 sequence (O60674 whole entry): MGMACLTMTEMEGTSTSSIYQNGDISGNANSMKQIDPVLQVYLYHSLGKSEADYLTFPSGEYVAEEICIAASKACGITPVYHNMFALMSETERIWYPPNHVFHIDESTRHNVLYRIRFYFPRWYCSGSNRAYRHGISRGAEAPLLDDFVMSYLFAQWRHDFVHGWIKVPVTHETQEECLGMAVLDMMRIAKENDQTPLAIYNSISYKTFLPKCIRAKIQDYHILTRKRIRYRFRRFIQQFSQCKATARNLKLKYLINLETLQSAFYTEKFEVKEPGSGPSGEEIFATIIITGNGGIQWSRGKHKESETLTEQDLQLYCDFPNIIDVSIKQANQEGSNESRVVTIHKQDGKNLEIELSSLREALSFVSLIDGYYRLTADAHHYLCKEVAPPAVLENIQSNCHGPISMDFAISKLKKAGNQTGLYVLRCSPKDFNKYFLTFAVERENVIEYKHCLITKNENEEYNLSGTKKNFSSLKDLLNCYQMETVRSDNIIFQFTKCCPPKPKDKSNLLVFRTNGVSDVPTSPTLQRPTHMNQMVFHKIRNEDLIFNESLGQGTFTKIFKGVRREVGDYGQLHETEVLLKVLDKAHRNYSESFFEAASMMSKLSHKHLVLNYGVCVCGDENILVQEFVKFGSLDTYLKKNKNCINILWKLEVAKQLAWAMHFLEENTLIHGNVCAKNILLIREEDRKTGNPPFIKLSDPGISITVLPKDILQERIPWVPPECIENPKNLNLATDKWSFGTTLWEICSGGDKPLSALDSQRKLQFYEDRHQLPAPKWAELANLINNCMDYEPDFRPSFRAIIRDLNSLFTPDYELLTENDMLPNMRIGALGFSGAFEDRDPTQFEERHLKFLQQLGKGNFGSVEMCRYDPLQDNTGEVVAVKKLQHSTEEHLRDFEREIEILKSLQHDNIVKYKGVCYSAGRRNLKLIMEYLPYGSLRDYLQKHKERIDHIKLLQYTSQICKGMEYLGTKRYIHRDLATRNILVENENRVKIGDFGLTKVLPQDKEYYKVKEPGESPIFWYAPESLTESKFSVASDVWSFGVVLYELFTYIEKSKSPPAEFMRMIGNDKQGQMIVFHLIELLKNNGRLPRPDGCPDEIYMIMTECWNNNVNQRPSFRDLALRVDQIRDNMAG
T4 sequence (P23458 whole entry): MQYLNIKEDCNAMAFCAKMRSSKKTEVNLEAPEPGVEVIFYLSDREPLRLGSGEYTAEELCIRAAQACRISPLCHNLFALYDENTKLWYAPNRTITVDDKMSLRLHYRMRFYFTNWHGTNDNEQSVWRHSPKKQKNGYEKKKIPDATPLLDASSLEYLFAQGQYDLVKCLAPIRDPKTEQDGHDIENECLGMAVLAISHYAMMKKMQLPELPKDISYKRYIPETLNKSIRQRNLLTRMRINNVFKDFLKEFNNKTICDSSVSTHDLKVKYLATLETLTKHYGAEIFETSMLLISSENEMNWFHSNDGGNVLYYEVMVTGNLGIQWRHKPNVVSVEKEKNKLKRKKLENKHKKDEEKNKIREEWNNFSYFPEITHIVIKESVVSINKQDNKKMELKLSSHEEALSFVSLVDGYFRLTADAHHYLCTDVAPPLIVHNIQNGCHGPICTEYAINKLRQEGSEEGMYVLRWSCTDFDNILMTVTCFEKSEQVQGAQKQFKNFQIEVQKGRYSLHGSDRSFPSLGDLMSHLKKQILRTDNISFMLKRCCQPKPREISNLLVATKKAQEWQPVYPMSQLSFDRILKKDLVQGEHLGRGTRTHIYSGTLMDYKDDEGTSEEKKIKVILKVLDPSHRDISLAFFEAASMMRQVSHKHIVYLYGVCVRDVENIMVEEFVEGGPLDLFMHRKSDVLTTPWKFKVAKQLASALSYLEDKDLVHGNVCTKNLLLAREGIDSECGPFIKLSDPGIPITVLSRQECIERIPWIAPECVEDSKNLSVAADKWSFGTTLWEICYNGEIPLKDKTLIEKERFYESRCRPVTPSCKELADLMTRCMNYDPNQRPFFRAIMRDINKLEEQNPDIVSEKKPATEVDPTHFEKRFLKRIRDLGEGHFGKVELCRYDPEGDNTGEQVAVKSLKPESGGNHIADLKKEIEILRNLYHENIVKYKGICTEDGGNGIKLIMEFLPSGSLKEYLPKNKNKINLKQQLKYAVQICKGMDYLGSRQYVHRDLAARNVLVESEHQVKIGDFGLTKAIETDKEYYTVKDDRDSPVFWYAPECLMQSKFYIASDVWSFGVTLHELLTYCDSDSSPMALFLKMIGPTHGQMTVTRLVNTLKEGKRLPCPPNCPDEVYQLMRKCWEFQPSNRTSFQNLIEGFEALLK

Structure (SMILES) | combined stool score endpoint as compared with vehicle treated animals [3] | hygroscopicity [4] | weight gain (moisture uptake) [4] | further results
CN(C)C/C=C/C(=O)N1CC(C(C)(C)Oc2cc(-c3ccc(O)c(F)c3)cc3[nH]ncc23)C1 [Compound 19, (E)-1-(3-(2-((6-(3-fluoro-4-hydroxyphenyl)-1H-indazol-4-yl)oxy)propan-2-yl)azetidin-1-yl)-4-(dimethylamino)but-2-en-1-one] | statistically significant decrease |  |  | Kp [1]: > 200; IC50 [2]: < 1 µM
CN(C)C/C=C/C(=O)N1CC(COc2cc(-c3ccc(O)cc3)cc3[nH]ncc23)C1 [Form 3, (E)-4-(dimethylamino)-1-(3-(((6-(4-hydroxyphenyl)-1H-indazol-4-yl)oxy)methyl)azetidin-1-yl)but-2-en-1-one] |  | non-hygroscopic | about 0.33% | 
CN(C)C/C=C/C(=O)N1CC(COc2cc(-c3ccc(O)cc3)cc3[nH]ncc23)C1 [Form 4, (E)-4-(dimethylamino)-1-(3-(((6-(4-hydroxyphenyl)-1H-indazol-4-yl)oxy)methyl)azetidin-1-yl)but-2-en-1-one] |  | moderately hygroscopic | about 5.01% | 
CN(C)C/C=C/C(=O)N1CC(C(C)(C)Oc2cc(-c3ccc(O)c(Cl)c3)cc3[nH]ncc23)C1 [Form 1, (E)-1-(3-(2-((6-(3-chloro-4-hydroxyphenyl)-1H-indazol-4-yl)oxy)propan-2-yl)azetidin-1-yl)-4-(dimethylamino)but-2-en-1-one] |  | slightly hygroscopic | about 1.62% | 
CN(C)C/C=C/C(=O)N1CC(C(C)(C)Oc2cc(-c3ccc(O)c(Cl)c3)cc3[nH]ncc23)C1 [Form 2, (E)-1-(3-(2-((6-(3-chloro-4-hydroxyphenyl)-1H-indazol-4-yl)oxy)propan-2-yl)azetidin-1-yl)-4-(dimethylamino)but-2-en-1-one] |  |  | 7.99% | 
C=CC(=O)N1CC2(CC(Oc3cc(-c4ccc(O)c(Cl)c4)cc4[nH]ncc34)C2)C1 [Compound 15-1] | statistically significant decrease |  |  | JAK 2 (pKi) [5]: E (a pKi value of 7 or below (Ki of 100 nM or above)); Tall-1 (pIC50) [6]: A (a pIC50 value≥7.5 (IC50≤32 nM)); JAK 3 (pKi) [7]: B (a pKi value between 9 and 10 (Ki between 1 nM and 0.1 nM)); JAK3 (pKi)-JAK1 (pKi) ([7]; selectivity JAK3 over JAK1, difference of pKi): A (a value of 3 or above); Tyk 2 (pKi) [8]: E (a pKi value of 7 or below (Ki of 100 nM or above)); JAK 1 (pKi) [9]: E (a pKi value of 7 or below (Ki of 100 nM or above))
